Data as given in article PMC6171417, “Carbonic anhydrase inhibition with a series of novel benzenesulfonamide-triazole conjugates” (Journal of Enzyme Inhibition and Medicinal Chemistry, 2018).

Experiments:
Test in all cases: cells
Parameters in all cases: species or system NCI human tumour cell line panel; NCI one-dose anti-proliferative screen, human tumour cell line panel, growth inhibition percent (GI%)
[1] = system: RXF 393; conditions: Homo sapiens, RXF 393; growth inhibition (GI%), single dose
[2] = system: DU-145; conditions: Homo sapiens, DU-145; growth inhibition (GI%), single dose
[3] = system: 786-0; conditions: Homo sapiens, 786-0; growth inhibition (GI%), single dose
[4] = system: NCI-H460; conditions: Homo sapiens, NCI-H460; growth inhibition (GI%), single dose
[5] = system: OVCAR-5; conditions: Homo sapiens, OVCAR-5; growth inhibition (GI%), single dose
[6] = system: SK-MEL-28; conditions: Homo sapiens, SK-MEL-28; growth inhibition (GI%), single dose

## N#Cc1c(-c2ccc(Cl)cc2)nc2c(nnn2-c2ccc(S(N)(=O)=O)cc2)c1N [compound 16, 4-(7-amino-5-(4-chlorophenyl)-6-cyano-3H-[1,2,3]triazolo[4,5-b]pyridin-3-yl)benzenesulfonamide]
[1]
  inhibition at 10 µM: 17.8%

## N#Cc1nnn(-c2ccc(S(N)(=O)=O)cc2)c1/N=C/c1ccc(Cl)cc1 [compound 9, 9]
[2]
  inhibition at 10 µM: 1%
[3]
  inhibition at 10 µM: 6.1%

## CN(C)c1ccc(-c2nc3c(nnn3-c3ccc(S(N)(=O)=O)cc3)c(N)c2C#N)cc1 [compound 17, 4-(7-amino-6-cyano-5-(4-(dimethylamino)phenyl)-3H-[1,2,3]triazolo[4,5-b]pyridin-3-yl)benzenesulfonamide]
[4]
  inhibition at 10 µM: 0.9%
[5]
  inhibition at 10 µM: 3.4%

## CCn1c(=S)[nH]c2c(nnn2-c2ccc(S(N)(=O)=O)cc2)c1=N [compound 20, 4-(6-ethyl-7-imino-5-thioxo-4,5,6,7-tetrahydro-3H-[1,2,3]triazolo[4,5-d]pyrimidin-3-yl)benzenesulfonamide]
[6]
  inhibition at 10 µM: 0%
